Measurements as given in US12485110B2, “Use of ergothioneine for extending lifespan or improving healthspan” (NANJING NUTRABUILDING BIO-TECH CO., LTD., priority 2022, dated 2025).

How the values were obtained:
C. elegans [1] = test: Movement and healthspan analysis (worm activity, morphology, circularity); assay type: in vivo
Text: Worm movement was tracked from the images acquired by the ALM during the lifespan assay. Worm size and movement features were extracted and analyzed using custom software.
To measure healthspan, active worms were identified using the ALM scanner images from the lifespan assay (see Example 2). The worms' spatial location on the plate and their morphology were quantified throughout their lifespan to assess healthspan.
Worm Activity serves as a proxy for animal health. Changes in spatial distribution of the worms between time points is used to derive aggregate movement for the population over time. Worm Activity is described by two complementary measurements of aggregate movement, Centroid Distance and Spatial Distribution: • Centroid Distance calculates a geometric center for each individual worm, and then measures the minimum collective distance that a group of worms moved between time points. It achieves measurement of the changes in spatial distribution between time-points. • Spatial Distribution uses changes in worm contours between time points to measure the changes in the spatial distribution of the worms' bodies. The normalized distribution of these distances in the population provides a measure of how much the group of worms altered their positions and posture on the plate between two time-points.
For both of these Activity metrics, a plot with higher numbers indicates good health, and all measures are normalized to fall between 0 and 1.
Worm morphology is measured from the worm contours detected in the images. In the process of aging, worms become shorter and stouter over time and their shape is an indicator of their overall health and biological age. The Length is calculated from the central spline fitted to the worm contour and Width is measured from each worm's widest point. The worms' posture also changes with age as they lose the ability to maintain an elongated position. Average Circularity measures how close the shape and posture come to being enclosed by a circle.
Each of these measures are obtained by averaging data for all active worms detected on a plate, then averaging across different replicate plates of the same condition. All measurements are based on worms that are still alive and moving at the time of quantification. All measures start when worms are placed on the scanner at day 3 of adulthood.
Average Circularity. The Average Circularity Assay indicates worm heath by describing how closely the shape and posture of the worms is enclosed within a circle. Healthy, active worms maintain an elongated, albeit sinusoidal posture. As unhealthy and aged worms lose muscle function, they increasingly adopt a curled, bunched, or folded state in addition to a stout and wrinkled morphology.

C. elegans [2] = test: Differential gene expression by mRNA sequencing (RNA-Seq); assay type: in vivo; conditions: for Number of genes differentially expressed above threshold: 5 mM vs control
Description: More than 150 day-1 adult worms per replicate were harvested, cleaned by filtration, and frozen at −80° C. in Trizol. To extract RNA, samples were thawed, vigorously vortexed, and processed using the Direct-zol RNA Miniprep Kit (Zymo Research). All samples exceeded our threshold for RNA quantity and quality.
RNA samples were submitted to Novogene Co. Ltd and subjected to more stringent QC, being tested on a Qubit for concentration and run on an agarose gel and on the Agilent 2100 to assess RNA quality and integrity.
The total RNA is then enriched for poly-mRNA using oligo(dT) paramagnetic beads. DNA libraries were then constructed from this input mRNA using the NEB Next Ultra™ II RNA Library Prep Kit. This creates a ready-to-sequence dsDNA library that retains the strand-specific information in the original mRNA. These libraries were then further tested by the Qubit for concentration and the Agilent 2100 for library size distribution and quality. In order to properly pool the libraries and load them onto sequencing lanes to ensure the correct number of reads per sample, an even more precise quantification of the library was done via qPCR, and the samples were loaded onto the NovaSeq 6000 platform for a paired-end sequencing run of 150 bp for each end (PE150). The loading concentrations were designed to obtain at least 6.0 Gb (which is the number of billion bases of raw data, determined by the number of reads multiplied by the length of each read).
Sequencing run data quality control was performed both by Novogene and again by inventors of this application. The raw data set was analyzed for: • 1. The distribution of base quality along the length of the sequencing read; • 2. The distribution of error rate along the length of the sequencing read; • 3. The distribution of A/T/G/C bases along the length of the sequencing read; • 4. The distribution of raw data filtering results based on the following three criteria: • a. Removing reads containing adapter sequence, • b. Remove reads with N>10% (where N means “base cannot be determined”), • c. Remove reads with a low quality (Qscore<=5) for 50% or more of its total bases.
To identify potential mechanisms of action through which Ergothioneine could affect aging, global gene expression was analyzed by mRNA sequencing (RNA-Seq). Both young (adult day 3) and aged (adult day 10) worms were collected from the same population of worms tested in the lifespan assay.
Differential gene expression was performed with EdgeR using […] likelihood ratio tests based on fitting linear models. The likelihood ratios were used to determine the p-values which were subsequently corrected for using the BH false discovery rate (fdr) method. Ultimately, differentially expressed genes (DEG) were defined as genes with an fdr-corrected p-value of 0.05 or lower, as well as a change in expression of at least 2-fold in a given between-group comparison. In this study, the comparison groups in Table 5 were used:
Reading Volcano Plots (log 2 fold change, Log FC): Positive values mean that the gene is more expressed in Treatment, and negative values mean the gene is more expressed in Control. The farther the dot is from the origin point on the x-axis, the greater the expression fold-change. Genes represented in green show a larger than 2-fold change in expression but are not deemed statistically significant due to replicate variability or low read count. Genes represented by red dots show greater than 2-fold change and expression that is statistically significant. The higher on the y-axis, the greater the calculated level of significance.

[3] = 5 mM vs vehicle control, Day 10, log 2 fold change
[4] = 5 mM vs. vehicle control, Day 3, log 2 fold change

Structure (SMILES): C[N+](C)(C)[C@@H](Cc1c[nH]c(=S)[nH]1)C(=O)[O-] [Ergo, Ergothioneine]
- Aggregate movement (Centroid Distance and Spatial Distribution, FIGS. 5A-5B) (C. elegans [1]; 5 mM, over the duration of lifespan): more vigorous movement
- Average circularity (FIG. 7) (C. elegans [1]; ergothioneine-treated worms vs control, peaking at around 16 days): only slight differences
- Worm morphology (length, width, area, FIGS. 6A-6C) (C. elegans [1]; up to the 5 mM dosage, over the lifespan): did not produce detectable changes in morphology
- Number of genes differentially expressed above threshold (C. elegans [2]; Day 3, cpr-1, mtl-1, argk-1, fdr P 0.05 or lower and at least 2-fold): 3
- Number of genes differentially expressed above threshold (C. elegans [2]; Day 10, F55G11.4): 1
- log FC, gene C30G12.2 (C. elegans [2]; [3]): 0.55
- log FC, gene F55G11.4 (C. elegans [2]; [3]): −1.09
- log FC, gene K07C11.7 (C. elegans [2]; [3]): −0.43
- log FC, gene TO5E12.6 (C. elegans [2]; [3]): 0.62
- log FC, gene Y39B6A. 1 (C. elegans [2]; [3]): −0.38
- log FC, gene Y94H6A.10 (C. elegans [2]; [3]): 0.43
- log FC, gene clec-150 (C. elegans [2]; [3]): −0.45
- log FC, gene col-19 (C. elegans [2]; [3]): −0.47
- log FC, gene dod-6 (C. elegans [2]; [3]): 0.69
- log FC, gene dod-24 (C. elegans [2]; [3]): −0.49
- log FC, gene folt-2 (C. elegans [2]; [3]): −0.49
- log FC, gene pmp-5 (C. elegans [2]; [3]): −0.64
- log FC, gene pmt-2 (C. elegans [2]; [3]): −0.38
- log FC, gene smd-1 (C. elegans [2]; [3]): 0.26
- log FC, gene thn-2 (C. elegans [2]; [3]): 0.31
- Log FC, gene C14C6.5 (C. elegans [2]; [4]): −0.59
- Log FC, gene F16B4.4 (C. elegans [2]; [4]): 0.66
- Log FC, gene F28B4.3 (C. elegans [2]; [4]): −0.48
- Log FC, gene F53A9.8 (C. elegans [2]; [4]): −0.73
- Log FC, gene F57F4.4 (C. elegans [2]; [4]): −0.43
- Log FC, gene Y39B6A. 1 (C. elegans [2]; [4]): −0.95
- Log FC, gene argk-1 (C. elegans [2]; [4]): 1.14
- Log FC, gene col-95 (C. elegans [2]; [4]): −0.56
- Log FC, gene col-124 (C. elegans [2]; [4]): 1.76
- Log FC, gene cpr-1 (C. elegans [2]; [4]): −2.10
- Log FC, gene ctsa-1.2 (C. elegans [2]; [4]): −0.48
- Log FC, gene ctsa-2 (C. elegans [2]; [4]): 0.50
- Log FC, gene folt-2 (C. elegans [2]; [4]): −0.54
- Log FC, gene hacd-1 (C. elegans [2]; [4]): −1.06
- Log FC, gene ilys-5 (C. elegans [2]; [4]): −0.57
- Log FC, gene irg-5 (C. elegans [2]; [4]): 1.39
- Log FC, gene lys-7 (C. elegans [2]; [4]): −0.70
- Log FC, gene mtl-1 (C. elegans [2]; [4]): −1.63
- Log FC, gene smd-1 (C. elegans [2]; [4]): −0.35
- Log FC, gene vit-4 (C. elegans [2]; [4]): −0.64
